pEC50, pIC50, pKi: −log10 of the molar value. In brackets after ≈: the same amount, converted by molar mass.
Assays:
[1] = system: Human immunodeficiency virus 1; assay: Antiviral activity against HIV1 infected in human MT4 cells; assay type: functional, organism-based; conditions: Human immunodeficiency virus 1, MT4
P388 = assay: Antiproliferative activity against mouse P388 cells; assay type: functional, cell-based
[2] = Antiproliferative activity against human MEL28 cells; assay type: functional, cell-based; conditions: SK-MEL-28
HT-29 = assay: Antiproliferative activity against human HT-29 cells; assay type: functional, cell-based
A549 = assay: Antiproliferative activity against human A549 cells; assay type: functional, cell-based
[3] = Inhibition of Norovirus RNA-dependent RNA polymerase
HL-60 = assay: Antiproliferative activity against human HL60 cells; assay type: functional, cell-based
THP-1 = assay: Anti-inflammatory activity in human THP1 cells assessed as reduction in TNF production; assay type: functional, cell-based
HeLa = assay: Antiproliferative activity against human HeLa cells; assay type: functional, cell-based
[4] = molecular target: Protein farnesyltransferase (Homo sapiens, UniProt P49354+P49356); assay: Inhibition of FTase (unknown origin) assessed as reduction in transfer of [3H]FPP to Ki-Ras; assay type: protein-complex assay
Chymase = Chymase (Homo sapiens, UniProt P23946); assay: Inhibition of chymase in human mast cells using Suc-Ala-Ala-Pro-Phe-(p-nitroanilide) as substrate for 15 mins by spectrophotometric method; assay type: cell-based
Chymase, sequence (P23946 whole entry): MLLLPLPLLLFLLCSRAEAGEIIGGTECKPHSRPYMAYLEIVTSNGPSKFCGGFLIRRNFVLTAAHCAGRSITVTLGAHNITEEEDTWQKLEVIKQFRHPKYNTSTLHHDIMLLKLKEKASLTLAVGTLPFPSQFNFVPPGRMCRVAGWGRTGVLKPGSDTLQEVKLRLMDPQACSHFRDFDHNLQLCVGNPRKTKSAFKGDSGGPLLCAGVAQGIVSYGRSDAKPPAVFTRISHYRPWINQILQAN

[5] = molecular target: Prostaglandin G/H synthase 2 (Homo sapiens, UniProt P35354); assay: Inhibition of COX2 (unknown origin)
Prostaglandin G/H synthase 2, sequence (P35354 whole entry): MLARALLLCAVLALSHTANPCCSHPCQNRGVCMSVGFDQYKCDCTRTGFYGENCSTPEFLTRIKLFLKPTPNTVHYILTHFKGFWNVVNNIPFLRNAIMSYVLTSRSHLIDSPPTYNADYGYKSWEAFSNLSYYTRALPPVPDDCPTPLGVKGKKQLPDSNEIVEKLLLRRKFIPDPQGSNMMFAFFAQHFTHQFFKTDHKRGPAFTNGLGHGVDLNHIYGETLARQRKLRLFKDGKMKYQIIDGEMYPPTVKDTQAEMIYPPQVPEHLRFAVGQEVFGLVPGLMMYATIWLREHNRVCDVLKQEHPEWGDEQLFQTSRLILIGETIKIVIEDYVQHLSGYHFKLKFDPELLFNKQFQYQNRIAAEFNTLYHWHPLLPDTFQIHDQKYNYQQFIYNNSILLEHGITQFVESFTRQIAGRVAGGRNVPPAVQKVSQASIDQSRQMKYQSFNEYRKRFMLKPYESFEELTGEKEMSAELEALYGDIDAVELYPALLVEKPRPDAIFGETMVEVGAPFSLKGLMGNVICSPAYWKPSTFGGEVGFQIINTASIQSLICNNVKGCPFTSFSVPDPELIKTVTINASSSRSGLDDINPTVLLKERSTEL

[6] = system: Mycobacterium tuberculosis; assay: Antimycobacterial activity against Mycobacterium tuberculosis H37Rv; assay type: functional, organism-based
Rattus norvegicus [7] = assay: Anti-inflammatory activity in rat assessed as inhibition of carrageenan-induced paw edema relative to control; assay type: functional
Cryptococcus neoformans = assay: Antifungal activity against Cryptococcus neoformans; assay type: functional
Rattus norvegicus [8] = assay: Anti-inflammatory activity in rat assessed as inhibition of carrageenan-induced paw edema after 4 hrs relative to control; assay type: functional
MT4 = assay: Antiproliferative activity against human MT4 cells; assay type: functional
Alternaria alternata = assay: Antifungal activity against Alternaria alternata assessed as zone of inhibition; assay type: functional
Staphylococcus aureus [9] = assay: Antibacterial activity against Staphylococcus aureus assessed as zone of inhibition; assay type: functional
Pichia kudriavzevii = assay: Antifungal activity against Candida krusei; assay type: functional
[10] = system: Mycobacterium tuberculosis; assay: Antimycobacterial activity against Mycobacterium tuberculosis; assay type: functional
[11] = Inhibition of Human cytomegalovirus protease; design: species or system Human betaherpesvirus 5
[12] = Induction of apoptosis in human NB4.437r cells by Annexin V/propidium iodide staining based flow cytometry; assay type: functional, cell-based
HepG2 = assay: Antiproliferative activity against human HepG2 cells; assay type: functional, cell-based
Aspergillus niger = assay: Antifungal activity against Aspergillus niger by disk diffusion method; assay type: functional
Neutrophil [13] = assay: Anti-inflammatory activity in human neutrophils assessed as inhibition of fMLP/cytochalasin B-induced superoxide anion generation preincubated for 5 mins followed by fMLP/cytochalasin B addition and measured after 10 mins by spectrophotometric method; assay type: functional, cell-based
Neutrophil [14] = assay: Anti-inflammatory activity in human neutrophils assessed as inhibition of fMLP/cytochalasin B-induced elastase release preincubated for 5 mins followed by fMLP/cytochalasin B addition; assay type: functional, cell-based
Mycobacterium avium = assay: Antimycobacterial activity against Mycobacterium avium; assay type: functional
Angiotensin II receptor = Angiotensin II receptor (Homo sapiens, UniProt P30556+P50052); assay: Antagonist activity at angiotensin-2 receptor (unknown origin); assay type: protein assay
Rattus norvegicus [15] = assay: Anti-inflammatory activity in Wistar albino rat assessed as inhibition of carrageenan-induced paw edema at 100 mg/kg, po via gavage measured after 1 hr by plethysmometric method relative to control; assay type: functional
[16] = system: Mycobacterium tuberculosis; assay: Antimycobacterial activity against Mycobacterium tuberculosis H37Ra; assay type: functional
[17] = system: Human immunodeficiency virus 1; assay: Antiviral activity against HIV1; assay type: functional, organism-based
[18] = molecular target: Prostaglandin G/H synthase 1 (Homo sapiens) (UniProt P23219); assay: Inhibition of COX1 (unknown origin) at 10 uM relative to control
Prostaglandin G/H synthase 1 (Homo sapiens), sequence (P23219 whole entry): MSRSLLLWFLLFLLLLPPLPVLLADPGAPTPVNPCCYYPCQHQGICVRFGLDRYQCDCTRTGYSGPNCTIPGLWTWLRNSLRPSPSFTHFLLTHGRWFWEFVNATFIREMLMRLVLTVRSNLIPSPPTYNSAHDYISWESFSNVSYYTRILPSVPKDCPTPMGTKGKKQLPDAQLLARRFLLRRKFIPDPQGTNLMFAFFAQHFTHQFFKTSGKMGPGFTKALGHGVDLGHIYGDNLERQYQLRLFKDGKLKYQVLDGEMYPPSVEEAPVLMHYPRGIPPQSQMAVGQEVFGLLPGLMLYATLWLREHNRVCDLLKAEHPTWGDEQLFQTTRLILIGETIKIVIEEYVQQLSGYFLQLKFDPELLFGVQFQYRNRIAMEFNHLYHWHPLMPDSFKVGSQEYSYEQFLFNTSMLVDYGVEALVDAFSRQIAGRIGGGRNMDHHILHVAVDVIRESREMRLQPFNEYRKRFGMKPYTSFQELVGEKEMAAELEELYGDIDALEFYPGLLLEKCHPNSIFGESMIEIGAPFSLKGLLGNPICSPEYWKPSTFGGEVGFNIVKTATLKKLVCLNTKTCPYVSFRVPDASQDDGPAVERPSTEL

[19] = molecular target: Prostaglandin G/H synthase 2 (Homo sapiens) (UniProt P35354); assay: Inhibition of COX2 (unknown origin) at 10 uM relative to control
Prostaglandin G/H synthase 2 (Homo sapiens), sequence (P35354 whole entry): as the sequence (P35354 whole entry) above

Candida albicans = assay: Antifungal activity against Candida albicans; assay type: functional
Staphylococcus aureus [20] = assay: Antibacterial activity against Staphylococcus aureus; assay type: functional

O=C(COc1ccc2ccccc2c1)NCc1nnc(SCc2nc3ccccc3[nH]2)n1-c1ccccc1
EC50 [1]: 0.2 µg/mL (≈ 0.384 µM)

C(=C\c1ccc2ccccc2c1)/c1ccc2ccccc2c1
pIC50 (P388): 5.19
pIC50 [2]: 5.27
pIC50 (HT-29): 5.27
pIC50 (A549): 5.13

Cc1nc(/N=N/c2cc(S(=O)(=O)O)c3cc([N+](=O)[O-])cc(S(=O)(=O)O)c3c2)cc(C=O)c1O
pIC50 [3]: 6.35

CC(=O)Oc1ccc2c(c1)c1c(n2CCN(C)C)C(=O)c2ccccc2C1=O
pIC50 (HL-60): 6.77

CSc1ncc(-n2nc(C(C)C)cc2NC(=O)Nc2ccc(-c3ccc(CN(C)C)nc3)c3ccccc23)cn1
pIC50 (THP-1): > 5.00

CN(C)CC1C(=O)c2cccc3cc([N+](=O)[O-])cc(c23)C1=O (centres undefined)
IC50 (HeLa): 0.15 µg/mL (≈ 0.503 µM)

CSCC[C@H](NC(=O)c1cccc2cc(NC[C@@H](N)CS)ccc12)C(=O)O
pIC50 [4]: 7.77

N#CCCCOc1ccc(-c2ccc(N)c3ccccc23)cn1
pIC50 (THP-1): > 5.00

O=C(c1ccc2ccccc2c1)C(c1cccc2ccccc12)P(=O)(O)O (centres undefined)
pKi (Chymase): 8.64

CS(=O)(=O)Nc1cc(Cc2ccc(Cl)cc2)c2ccccc2c1
pIC50 [5]: 5.00

CN(C)CCNC(=O)c1cc2c3c(cccc3c1)Sc1ccccc1-2
pIC50 (P388): 6.75

CC(=O)c1ccnc(C2=CC(=O)c3ccccc3C2=O)c1
MIC [6]: 3.13 µg/mL (≈ 11.3 µM)

COc1ccccc1C1CC(Nc2ccc3ccccc3c2)=NN1C(C)=O (centres undefined)
inhibition (INH) (Rattus norvegicus [7]): 67.85%

CN1CCC(N)CC1c1ccc(-c2ccc(N)c3ccccc23)cn1 (centres undefined)
pIC50 (THP-1): > 5.00

COc1cc(/C=C\c2ccc3ccccc3c2)cc(OC)c1OC [NAPHTHYLCOMBRETASTATIN]
pIC50 (P388): 5.19
pIC50 [2]: 5.27
pIC50 (HT-29): 5.27
pIC50 (A549): 5.13

CC(C)c1cccc(OC(=O)Nc2ccc(-c3ccc(CN4CCOCC4)nc3)c3ccccc23)c1
pIC50 (THP-1): > 5.00

Nc1ccc(-c2ccc(CC3CCOC3)c(O)c2)c2ccccc12 (centres undefined)
pIC50 (THP-1): > 5.00

O=C1c2cccc3cc([N+](=O)[O-])cc(c23)C(=O)C1CN1CCCCC1 (centres undefined)
IC50 (HeLa): 2 µg/mL (≈ 5.91 µM)

O=[N+]([O-])c1ccc2c(c1)-c1nnsc1CC2
MIC (Cryptococcus neoformans): 0.53 µg/mL (≈ 2.27 µM)

Oc1c(C2=NNC(c3ccc(Br)cc3)C2)ccc2ccccc12 (centres undefined)
inhibition (INH) (Rattus norvegicus [8]): 68.96%

O=C(CCNc1c(Br)cc(Br)cc1C(=O)O)Nc1ccc2ccccc2c1
inhibition (INH) (Rattus norvegicus [7]): 67.37%

COc1ccc(/C=C\c2ccc3ccccc3c2)cc1O
pIC50 (P388): 5.19
pIC50 [2]: 5.27
pIC50 (HT-29): 5.27
pIC50 (A549): 5.13

COC(=O)C(NC(=O)COc1ccc2ccccc2c1)C(C)C (centres undefined)
CC50 (MT4): 42 µM

CN(C)CCOc1ccc2c(c1)c1c(n2C)C(=O)c2ccccc2C1=O
pIC50 (HL-60): 6.55

Nc1cccc2cccc(/N=C3/CCC/C(=N\c4cccc5cccc(N)c45)C3)c12
inhibition zone (IZ) (Alternaria alternata): 10.5 mm
inhibition zone (IZ) (Staphylococcus aureus [9]): 10 mm

CN(C)CCNC(=O)c1cc2c3ccccc3sc2c2ccccc12
pIC50 (P388): 6.37

O=c1[nH]nc(COc2cccc3ccccc23)o1
MIC (Pichia kudriavzevii): 64 µg/mL (≈ 264 µM)

COc1nc2ccc(Br)cc2cc1[C@H](c1ccccc1)N(C(=O)CN1CCOCC1)[C@@H](C)c1cccc2ccccc12
MIC [10]: 60 µg/mL (≈ 96.1 µM)

CC(=O)Oc1ccc2c(c1)c1c(n2C)C(=O)c2ccccc2C1=O
pIC50 (HL-60): 6.00

COc1nc2ccc(Br)cc2cc1[C@@H](c1ccccc1)[C@@](O)(CCN(C)C)c1cccc2ccccc12 [BEDAQUILINE]
MIC [10]: 0.06 µg/mL (≈ 0.108 µM)

O=C(O)c1ccc(CNc2ccc3c(/C=C/c4ccc5ccc(Cl)cc5n4)cccc3c2)cc1
pIC50 [11]: 5.57

O=C(O)c1ccc2cc(-c3ccc(O)c(C45CC6CC(CC(C6)C4)C5)c3)ccc2c1 [O-DEMETHYLATED ADAPALENE]
pEC50 [12]: 4.92

O=C(Cc1cccc2c1CCCC2)N/N=C/c1ccc(O)c([N+](=O)[O-])c1
IC50 [6]: 3.07 µg/mL (≈ 8.69 µM)

COc1cc(OC)c(C2=CCN(C)CC2)c(O)c1C(=O)/C=C/c1cccc2ccccc12
pIC50 (HepG2): 5.19

c1ccc(-c2ccc3c(c2)CCCC3)cc1
MIC (Aspergillus niger): 780 µg/mL (≈ 3740 µM)

COc1ccc(/C=C/c2ccc3ccccc3c2)cc1O
pIC50 (P388): 5.19
pIC50 [2]: 5.27
pIC50 (HT-29): 5.27
pIC50 (A549): 5.13

O=C1c2cccc3cc([N+](=O)[O-])cc(c23)C(=O)C1CN1CCCC1 (centres undefined)
IC50 (HeLa): 0.3 µg/mL (≈ 0.925 µM)

COc1cc(C(C)=O)c(O)c2ccc(O)cc12
IC50 (Neutrophil [13]): 1.9 µg/mL (≈ 8.18 µM)
IC50 (Neutrophil [14]): 3.17 µg/mL (≈ 13.6 µM)

O=C(Nc1cccc(F)c1)c1cccc2ccccc12
MIC (Mycobacterium avium): 59 µM (≈ 15.7 µg/mL)

COc1cc(OC)c(C2=CCN(C)CC2)c(O)c1C(=O)/C=C/c1ccc2ccccc2c1
pIC50 (HepG2): 5.19

COc1ccc2[nH]c3c(c2c1)C(=O)c1ccccc1C3=O
pIC50 (HL-60): 4.34

COc1cc2c3c([nH]c2cc1Cl)C(=O)c1ccccc1C3=O
pIC50 (HL-60): 4.27

CCC(Cl)Cc1nc(CO)cn1Cc1ccc2cc(-c3nnn[nH]3)ccc2c1 (centres undefined)
IC50 (Angiotensin II receptor): 0.2 µM

COc1ccc2cc(-c3nnc(-c4cc(Cl)cc(Cl)c4)o3)ccc2c1
inhibition in vivo at 100 mg/kg (Rattus norvegicus [15]): 71.1%

O=C1C(O)=C(C(Nc2ccccn2)c2ccccc2O)C(=O)c2ccccc21 (centres undefined)
MIC [16]: 25 µg/mL (≈ 67.1 µM)

NS(=O)(=O)c1ccc2c(c1)-c1nnsc1CC2
MIC (Cryptococcus neoformans): 0.53 µg/mL (≈ 1.98 µM)

CC(C)C(NC(=O)COc1ccc2ccccc2c1)C(=O)NN (centres undefined)
EC50 [17]: 42 µg/mL (≈ 133 µM)

CCN(CC)CC1C(=O)c2cccc3cc([N+](=O)[O-])cc(c23)C1=O (centres undefined)
IC50 (HeLa): 2.5 µg/mL (≈ 7.66 µM)

COc1ccc2cc([C@H](C)C(=O)O)ccc2c1 [NAPROXEN]
inhibition (INH) (Rattus norvegicus [7]): 85.02%

C(=C/c1ccc2ccccc2c1)/c1ccc2ccccc2c1
pIC50 (P388): 5.19
pIC50 [2]: 5.27
pIC50 (HT-29): 5.27
pIC50 (A549): 5.13

COc1cc(/C=C/c2ccc3ccccc3c2)cc(OC)c1OC
pIC50 (P388): 5.19
pIC50 [2]: 5.27
pIC50 (HT-29): 5.27
pIC50 (A549): 5.13

COc1ccc2c(c1)CCC(NS(C)(=O)=O)C2 (centres undefined)
inhibition [18]: 87%
inhibition [19]: 50%

CC(C)NC(=N)c1ccc2c(c1)nc(-c1ccc3c(c1)C(C)(C)CCC3(C)C)n2Cc1ccc2ccccc2c1
MIC (Candida albicans): 0.78 µg/mL (≈ 1.48 µM)
MIC (Staphylococcus aureus [20]): 0.78 µg/mL (≈ 1.48 µM)

COc1ccc2cc(CCS(C)(=O)=O)ccc2c1
pIC50 [5]: 5.00
inhibition [18]: 29%
inhibition [19]: 65%

Nc1ccc(-c2ccc(Cc3cccnc3)c(O)c2)c2ccccc12
pIC50 (THP-1): > 5.00

CC(=O)Oc1ccc2[nH]c3c(c2c1)C(=O)c1ccccc1C3=O
pIC50 (HL-60): 5.88

Sc1nnc(COc2ccc3ccccc3c2)o1
MIC (Pichia kudriavzevii): 64 µg/mL (≈ 248 µM)

COc1ccccc1NC(=O)c1cccc2ccccc12
MIC (Mycobacterium avium): 54 µM (≈ 15 µg/mL)

COc1ccc2cc(C(C)C(=O)NC(=S)Nc3ccc(CS(=O)(=O)Nc4cc(C)on4)cc3)ccc2c1 (centres undefined)
inhibition (INH) (Rattus norvegicus [7]): 89.77%

Nc1nnc(COc2cccc3ccccc23)o1
MIC (Pichia kudriavzevii): 64 µg/mL (≈ 265 µM)
